Source: publication PMC8459745 (Bioorganic & medicinal chemistry letters, 2021)
pIC50: −log10 of the molar value.

Target: focal adhesion kinase (FAK) (Homo sapiens, UniProt Q05397)
Assay: FAK kinase inhibition assay
Type: biochemical

Sequence of focal adhesion kinase (FAK) (Q05397 2-1052): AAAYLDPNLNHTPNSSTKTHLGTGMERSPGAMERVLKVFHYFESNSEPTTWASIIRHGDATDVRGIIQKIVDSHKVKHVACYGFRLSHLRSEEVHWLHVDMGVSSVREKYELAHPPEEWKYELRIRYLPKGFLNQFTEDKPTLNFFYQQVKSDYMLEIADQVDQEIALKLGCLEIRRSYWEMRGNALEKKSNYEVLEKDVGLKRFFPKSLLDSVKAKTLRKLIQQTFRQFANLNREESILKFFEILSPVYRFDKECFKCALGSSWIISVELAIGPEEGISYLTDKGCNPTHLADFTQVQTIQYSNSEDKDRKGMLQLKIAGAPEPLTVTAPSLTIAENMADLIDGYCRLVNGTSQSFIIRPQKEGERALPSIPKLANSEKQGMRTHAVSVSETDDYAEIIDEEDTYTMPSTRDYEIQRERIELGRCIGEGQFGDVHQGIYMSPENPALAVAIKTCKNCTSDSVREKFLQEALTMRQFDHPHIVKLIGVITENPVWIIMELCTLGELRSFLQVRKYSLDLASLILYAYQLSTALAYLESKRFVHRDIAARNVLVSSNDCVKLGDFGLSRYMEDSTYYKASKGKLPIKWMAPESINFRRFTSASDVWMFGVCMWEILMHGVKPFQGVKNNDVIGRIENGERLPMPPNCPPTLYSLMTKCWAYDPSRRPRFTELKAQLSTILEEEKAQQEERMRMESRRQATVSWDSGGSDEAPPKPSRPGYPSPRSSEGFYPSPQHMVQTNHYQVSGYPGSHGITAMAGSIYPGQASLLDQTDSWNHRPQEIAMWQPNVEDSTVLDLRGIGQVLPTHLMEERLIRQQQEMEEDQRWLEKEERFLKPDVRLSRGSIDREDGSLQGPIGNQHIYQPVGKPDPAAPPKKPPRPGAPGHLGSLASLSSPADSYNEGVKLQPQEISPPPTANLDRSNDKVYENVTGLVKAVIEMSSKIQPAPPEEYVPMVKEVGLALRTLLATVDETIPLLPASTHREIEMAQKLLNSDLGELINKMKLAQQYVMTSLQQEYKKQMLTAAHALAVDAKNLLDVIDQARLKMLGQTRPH

pIC50: 7.65
Compound: CONC(=O)c1ccccc1Nc1cc(Nc2cc(C)nn2C(C)C)ncc1Cl [GSK2256098]
